Tests used:
[1] = molecular target: Casein kinase I isoform alpha (Homo sapiens) (UniProt P48729); settings: Compound concentration 1000.0 nM
[2] = molecular target: Cyclin-dependent kinase 3 (Homo sapiens) (UniProt Q00526); settings: Compound concentration 1000.0 nM
[3] = test system: Tyrosine-protein kinase ABL1 (Homo sapiens), P00519 [F317L]; settings: Compound concentration 1000.0 nM
[4] = molecular target: AP2-associated protein kinase 1 (Homo sapiens) (UniProt Q2M2I8); settings: Compound concentration 1000.0 nM
[5] = molecular target: Hepatocyte growth factor receptor (Homo sapiens) (UniProt P08581); settings: Compound concentration 1000.0 nM
[6] = molecular target: Testis-specific serine/threonine-protein kinase 3 (Homo sapiens) (UniProt Q96PN8); settings: Compound concentration 1000.0 nM
[7] = test system: Tyrosine-protein kinase ABL1 (Homo sapiens), P00519 [F317L]; settings: Compound concentration 1000.0 nM; remark: listed apart in the source
[8] = molecular target: Discoidin domain-containing receptor 2 (Homo sapiens) (UniProt Q16832); settings: Compound concentration 1000.0 nM
Sequence of Discoidin domain-containing receptor 2 (Homo sapiens) (Q16832 whole entry, the tested form may be a part): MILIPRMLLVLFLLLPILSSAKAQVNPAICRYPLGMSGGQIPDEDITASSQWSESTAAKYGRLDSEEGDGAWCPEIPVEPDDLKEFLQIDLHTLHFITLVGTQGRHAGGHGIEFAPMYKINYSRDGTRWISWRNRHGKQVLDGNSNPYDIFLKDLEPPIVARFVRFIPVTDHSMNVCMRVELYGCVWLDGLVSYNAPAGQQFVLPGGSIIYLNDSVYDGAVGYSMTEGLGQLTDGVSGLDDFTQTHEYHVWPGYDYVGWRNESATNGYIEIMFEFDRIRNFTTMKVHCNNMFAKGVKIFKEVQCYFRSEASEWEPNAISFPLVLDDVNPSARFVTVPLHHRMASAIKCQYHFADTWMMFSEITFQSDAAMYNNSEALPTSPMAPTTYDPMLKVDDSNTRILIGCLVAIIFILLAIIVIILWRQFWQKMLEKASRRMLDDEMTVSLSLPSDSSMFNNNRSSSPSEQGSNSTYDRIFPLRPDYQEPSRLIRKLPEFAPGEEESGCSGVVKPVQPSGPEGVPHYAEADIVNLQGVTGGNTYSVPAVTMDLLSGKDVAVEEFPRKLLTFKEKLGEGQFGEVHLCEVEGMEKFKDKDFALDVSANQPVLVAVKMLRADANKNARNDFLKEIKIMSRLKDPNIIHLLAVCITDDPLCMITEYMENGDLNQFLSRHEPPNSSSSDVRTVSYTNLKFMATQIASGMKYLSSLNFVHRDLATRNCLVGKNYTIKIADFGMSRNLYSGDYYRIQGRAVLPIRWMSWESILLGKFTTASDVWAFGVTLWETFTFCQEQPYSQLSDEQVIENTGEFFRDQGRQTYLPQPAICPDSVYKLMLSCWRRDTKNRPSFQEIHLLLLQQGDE

[9] = molecular target: Dual specificity protein kinase CLK4 (Homo sapiens) (UniProt Q9HAZ1); settings: Compound concentration 1000.0 nM
[10] = molecular target: NT-3 growth factor receptor (Homo sapiens) (UniProt Q16288); settings: Compound concentration 1000.0 nM
[11] = molecular target: Mitogen-activated protein kinase kinase kinase 20 (Homo sapiens) (UniProt Q9NYL2); settings: Compound concentration 1000.0 nM
[12] = molecular target: Serine/threonine-protein kinase ICK (Homo sapiens) (UniProt Q9UPZ9); settings: Compound concentration 1000.0 nM
[13] = molecular target: Platelet-derived growth factor receptor alpha (Homo sapiens) (UniProt P16234); settings: Compound concentration 1000.0 nM
[14] = molecular target: Serine/threonine-protein kinase TAO2 (Homo sapiens) (UniProt Q9UL54); settings: Compound concentration 1000.0 nM
[15] = molecular target: Receptor-type tyrosine-protein kinase FLT3 (Homo sapiens) (UniProt P36888); settings: Compound concentration 1000.0 nM
[16] = molecular target: Fibroblast growth factor receptor 2 (Homo sapiens) (UniProt P21802); settings: Compound concentration 1000.0 nM
[17] = molecular target: Cyclin-dependent kinase 4 (Homo sapiens) (UniProt P11802); settings: Compound concentration 1000.0 nM
Sequence of Cyclin-dependent kinase 4 (Homo sapiens) (P11802 whole entry): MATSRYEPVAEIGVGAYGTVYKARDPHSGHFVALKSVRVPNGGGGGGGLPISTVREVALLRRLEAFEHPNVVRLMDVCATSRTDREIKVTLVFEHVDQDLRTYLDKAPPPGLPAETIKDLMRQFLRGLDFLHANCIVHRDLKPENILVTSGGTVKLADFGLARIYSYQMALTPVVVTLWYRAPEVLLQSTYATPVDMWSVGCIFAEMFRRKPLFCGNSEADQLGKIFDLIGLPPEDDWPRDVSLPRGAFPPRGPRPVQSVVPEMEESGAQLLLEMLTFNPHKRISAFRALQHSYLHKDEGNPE

[18] = molecular target: Alpha-1B adrenergic receptor (Homo sapiens) (UniProt P35368); settings: Compound concentration 10.0 uM
[19] = molecular target: Homeodomain-interacting protein kinase 1 (Homo sapiens) (UniProt Q86Z02); settings: Compound concentration 1000.0 nM
[20] = molecular target: Serine/threonine-protein kinase RIO1 (Homo sapiens) (UniProt Q9BRS2); settings: Compound concentration 1000.0 nM
[21] = molecular target: Peripheral plasma membrane protein CASK (Homo sapiens) (UniProt O14936); settings: Compound concentration 1000.0 nM
[22] = molecular target: Dual specificity tyrosine-phosphorylation-regulated kinase 2 (Homo sapiens) (UniProt Q92630); settings: Compound concentration 1000.0 nM
[23] = molecular target: Citron Rho-interacting kinase (Homo sapiens) (UniProt O14578); settings: Compound concentration 1000.0 nM
Sequence of Citron Rho-interacting kinase (Homo sapiens) (O14578 whole entry): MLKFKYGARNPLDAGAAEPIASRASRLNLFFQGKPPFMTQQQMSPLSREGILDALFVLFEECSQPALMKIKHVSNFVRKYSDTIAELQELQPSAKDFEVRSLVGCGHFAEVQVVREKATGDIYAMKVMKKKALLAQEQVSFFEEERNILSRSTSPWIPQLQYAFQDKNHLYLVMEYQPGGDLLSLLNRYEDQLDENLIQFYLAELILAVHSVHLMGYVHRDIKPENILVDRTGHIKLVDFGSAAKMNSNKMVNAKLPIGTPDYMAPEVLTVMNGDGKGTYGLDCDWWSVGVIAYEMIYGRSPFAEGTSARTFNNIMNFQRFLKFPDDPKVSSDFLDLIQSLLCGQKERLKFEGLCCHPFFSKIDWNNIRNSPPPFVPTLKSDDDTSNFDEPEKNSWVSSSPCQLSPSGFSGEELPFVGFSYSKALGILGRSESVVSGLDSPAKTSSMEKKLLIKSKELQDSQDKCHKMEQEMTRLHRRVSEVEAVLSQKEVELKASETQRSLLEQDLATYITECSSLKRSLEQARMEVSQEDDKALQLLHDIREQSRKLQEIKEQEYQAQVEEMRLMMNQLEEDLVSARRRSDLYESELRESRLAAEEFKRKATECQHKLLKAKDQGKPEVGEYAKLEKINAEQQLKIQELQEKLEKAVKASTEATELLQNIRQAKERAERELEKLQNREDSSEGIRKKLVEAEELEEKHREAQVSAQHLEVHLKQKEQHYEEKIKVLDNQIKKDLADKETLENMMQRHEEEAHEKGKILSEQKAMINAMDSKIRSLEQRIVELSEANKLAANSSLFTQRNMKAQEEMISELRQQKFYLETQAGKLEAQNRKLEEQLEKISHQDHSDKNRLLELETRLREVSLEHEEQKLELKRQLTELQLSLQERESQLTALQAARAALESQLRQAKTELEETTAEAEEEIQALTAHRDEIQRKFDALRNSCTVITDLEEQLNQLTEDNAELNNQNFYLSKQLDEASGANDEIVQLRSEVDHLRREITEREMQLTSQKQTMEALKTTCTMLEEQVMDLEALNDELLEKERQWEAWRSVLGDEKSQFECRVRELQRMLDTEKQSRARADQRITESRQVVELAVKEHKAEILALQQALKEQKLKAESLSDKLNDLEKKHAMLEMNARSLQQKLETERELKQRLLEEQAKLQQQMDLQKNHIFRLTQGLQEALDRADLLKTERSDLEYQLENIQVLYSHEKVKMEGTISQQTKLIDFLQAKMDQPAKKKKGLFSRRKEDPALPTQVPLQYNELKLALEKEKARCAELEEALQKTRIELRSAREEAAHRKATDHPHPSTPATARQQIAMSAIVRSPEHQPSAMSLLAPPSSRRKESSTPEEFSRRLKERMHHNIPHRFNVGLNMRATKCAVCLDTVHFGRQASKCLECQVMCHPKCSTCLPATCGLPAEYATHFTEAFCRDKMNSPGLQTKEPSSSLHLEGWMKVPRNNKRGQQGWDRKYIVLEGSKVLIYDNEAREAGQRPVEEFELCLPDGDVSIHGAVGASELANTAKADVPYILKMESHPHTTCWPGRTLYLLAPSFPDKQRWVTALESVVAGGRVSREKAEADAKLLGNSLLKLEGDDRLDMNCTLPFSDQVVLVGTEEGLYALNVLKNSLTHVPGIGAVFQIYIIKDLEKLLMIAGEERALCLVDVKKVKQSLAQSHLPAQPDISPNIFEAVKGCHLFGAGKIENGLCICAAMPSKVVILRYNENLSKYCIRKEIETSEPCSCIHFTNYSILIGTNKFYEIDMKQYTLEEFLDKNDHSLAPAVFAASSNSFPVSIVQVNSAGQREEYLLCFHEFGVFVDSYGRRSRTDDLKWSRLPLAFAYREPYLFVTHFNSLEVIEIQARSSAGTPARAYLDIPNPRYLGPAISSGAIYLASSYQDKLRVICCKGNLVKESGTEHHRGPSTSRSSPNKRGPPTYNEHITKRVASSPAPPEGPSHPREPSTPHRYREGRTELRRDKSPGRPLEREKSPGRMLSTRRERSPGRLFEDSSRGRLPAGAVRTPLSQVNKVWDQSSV

[24] = molecular target: Cyclin-dependent kinase 18 (Homo sapiens) (UniProt Q07002); settings: Compound concentration 1000.0 nM
[25] = molecular target: Receptor-type tyrosine-protein kinase FLT3 (Homo sapiens) (UniProt P36888); settings: Compound concentration 1000.0 nM; remark: listed apart in the source
[26] = molecular target: Serine/threonine-protein kinase MARK2 (Homo sapiens) (UniProt Q7KZI7); settings: Compound concentration 1000.0 nM
Sequence of Serine/threonine-protein kinase MARK2 (Homo sapiens) (Q7KZI7 whole entry): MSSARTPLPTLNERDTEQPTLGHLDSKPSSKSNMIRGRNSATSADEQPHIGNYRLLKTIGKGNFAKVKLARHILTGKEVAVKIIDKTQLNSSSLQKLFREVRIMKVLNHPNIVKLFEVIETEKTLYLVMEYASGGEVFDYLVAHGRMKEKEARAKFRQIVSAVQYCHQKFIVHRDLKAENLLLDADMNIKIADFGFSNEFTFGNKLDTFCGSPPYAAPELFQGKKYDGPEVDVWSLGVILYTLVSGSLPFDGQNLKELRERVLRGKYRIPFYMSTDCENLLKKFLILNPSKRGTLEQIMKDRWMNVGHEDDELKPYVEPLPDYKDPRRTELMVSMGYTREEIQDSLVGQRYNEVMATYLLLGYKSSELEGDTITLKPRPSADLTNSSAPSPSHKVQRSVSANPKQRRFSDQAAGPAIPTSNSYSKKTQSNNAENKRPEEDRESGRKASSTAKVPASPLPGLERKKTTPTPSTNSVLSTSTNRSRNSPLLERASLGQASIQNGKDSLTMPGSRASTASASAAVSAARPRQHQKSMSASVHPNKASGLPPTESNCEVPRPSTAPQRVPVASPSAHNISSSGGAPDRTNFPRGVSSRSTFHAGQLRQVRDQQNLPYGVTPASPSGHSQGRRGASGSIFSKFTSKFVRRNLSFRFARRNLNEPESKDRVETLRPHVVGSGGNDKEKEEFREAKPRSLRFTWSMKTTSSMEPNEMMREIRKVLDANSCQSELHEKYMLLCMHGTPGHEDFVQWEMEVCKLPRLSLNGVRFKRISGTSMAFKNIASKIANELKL

[27] = molecular target: Ribosomal protein S6 kinase alpha-2 (Homo sapiens) (UniProt Q15349); settings: Compound concentration 1000.0 nM
[28] = test system: Receptor-type tyrosine-protein kinase FLT3 (Homo sapiens), P36888 [D835V]; settings: Compound concentration 1000.0 nM
[29] = molecular target: RAC-alpha serine/threonine-protein kinase (Homo sapiens) (UniProt P31749); settings: Compound concentration 1000.0 nM
[30] = molecular target: 3-phosphoinositide-dependent protein kinase 1 (Homo sapiens) (UniProt O15530); settings: Compound concentration 1000.0 nM
[31] = molecular target: SRSF protein kinase 3 (Homo sapiens) (UniProt Q9UPE1); settings: Compound concentration 1000.0 nM
[32] = molecular target: Insulin-like growth factor 1 receptor (Homo sapiens) (UniProt P08069); settings: Compound concentration 1000.0 nM
[33] = test system: Mast/stem cell growth factor receptor Kit (Homo sapiens), P10721 [D816V]; settings: Compound concentration 1000.0 nM
[34] = molecular target: Casein kinase I isoform delta (Homo sapiens) (UniProt P48730); settings: Compound concentration 1000.0 nM
[35] = test system: Hepatocyte growth factor receptor (Homo sapiens), P08581 [M1250T]; settings: Compound concentration 1000.0 nM
[36] = molecular target: Dual specificity protein kinase CLK3 (Homo sapiens) (UniProt P49761); settings: Compound concentration 1000.0 nM
[37] = molecular target: Serine/threonine-protein kinase MRCK gamma (Homo sapiens) (UniProt Q6DT37); settings: Compound concentration 1000.0 nM
[38] = molecular target: Muscarinic acetylcholine receptor M4 (Homo sapiens) (UniProt P08173); settings: Compound concentration 10.0 uM
[39] = molecular target: Serine/threonine-protein kinase N2 (Homo sapiens) (UniProt Q16513); settings: Compound concentration 1000.0 nM
[40] = molecular target: G protein-coupled receptor kinase 3 (Homo sapiens) (UniProt P35626); settings: Compound concentration 1000.0 nM
[41] = molecular target: Casein kinase II subunit alpha (Homo sapiens) (UniProt P68400); settings: Compound concentration 1000.0 nM
[42] = molecular target: G protein-coupled receptor kinase 4 (Homo sapiens) (UniProt P32298); settings: Compound concentration 1000.0 nM
[43] = molecular target: Serine/threonine-protein kinase SIK2 (Homo sapiens) (UniProt Q9H0K1); settings: Compound concentration 1000.0 nM
[44] = test system: Serine/threonine-protein kinase B-raf (Homo sapiens), P15056 [V600E]; settings: Compound concentration 1000.0 nM
[45] = molecular target: Phosphatidylinositol 4-phosphate 3-kinase C2 domain-containing subunit beta (Homo sapiens) (UniProt O00750); settings: Compound concentration 1000.0 nM

Sequence of Tyrosine-protein kinase ABL1 (Homo sapiens), P00519 [F317L] (P00519 whole entry F317L, the tested form may be a part): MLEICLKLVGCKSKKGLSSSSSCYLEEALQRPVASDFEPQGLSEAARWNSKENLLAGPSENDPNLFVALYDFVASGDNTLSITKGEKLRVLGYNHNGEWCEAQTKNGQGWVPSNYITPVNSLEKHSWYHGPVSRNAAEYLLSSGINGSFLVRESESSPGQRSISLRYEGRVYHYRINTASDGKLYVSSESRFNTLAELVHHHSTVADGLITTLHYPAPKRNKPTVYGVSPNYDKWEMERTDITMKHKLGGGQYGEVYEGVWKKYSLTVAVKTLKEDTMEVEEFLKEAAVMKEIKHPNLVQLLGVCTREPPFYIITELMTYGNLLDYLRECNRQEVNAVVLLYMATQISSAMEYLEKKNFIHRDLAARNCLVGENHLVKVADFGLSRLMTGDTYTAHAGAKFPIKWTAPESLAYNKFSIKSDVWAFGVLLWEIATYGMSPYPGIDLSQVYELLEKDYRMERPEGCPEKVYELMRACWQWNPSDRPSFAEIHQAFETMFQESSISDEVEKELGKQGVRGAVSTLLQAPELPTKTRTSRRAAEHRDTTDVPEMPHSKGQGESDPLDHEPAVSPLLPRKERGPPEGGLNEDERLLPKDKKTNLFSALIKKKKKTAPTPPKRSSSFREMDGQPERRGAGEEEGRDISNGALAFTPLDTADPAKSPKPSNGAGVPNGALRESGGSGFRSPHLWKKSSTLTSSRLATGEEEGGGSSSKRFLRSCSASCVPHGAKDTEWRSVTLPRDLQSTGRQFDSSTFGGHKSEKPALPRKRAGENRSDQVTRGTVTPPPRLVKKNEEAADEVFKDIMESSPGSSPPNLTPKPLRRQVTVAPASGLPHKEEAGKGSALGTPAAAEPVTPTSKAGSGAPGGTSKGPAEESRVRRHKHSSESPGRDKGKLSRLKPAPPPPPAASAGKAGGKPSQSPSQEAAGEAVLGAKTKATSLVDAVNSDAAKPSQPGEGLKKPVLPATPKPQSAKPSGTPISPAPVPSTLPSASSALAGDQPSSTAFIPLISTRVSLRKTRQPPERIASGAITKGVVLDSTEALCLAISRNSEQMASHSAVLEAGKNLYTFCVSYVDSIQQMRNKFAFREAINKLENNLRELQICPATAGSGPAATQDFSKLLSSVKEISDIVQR

O=C(Nc1cccnn1)N1CCC(=Cc2cccc(Oc3ccc(C(F)(F)F)cn3)c2)CC1
inactive: residual activity [1] 100% | residual activity [2] 100% | residual activity [3] 100% | residual activity [4] 74% | residual activity [5] 100% | residual activity [6] 100% | residual activity [7] 94% | residual activity [8] 100% | residual activity [9] 70% | residual activity [10] 100% | residual activity [11] 95% | residual activity [12] 91% | residual activity [13] 100% | residual activity [14] 100% | residual activity [15] 97% | residual activity [16] 96% | residual activity [17] 100% | inhibition [18] 0.4% | residual activity [19] 100% | residual activity [20] 100% | residual activity [21] 92% | residual activity [22] 81% | residual activity [23] 79% | residual activity [24] 76% | residual activity [25] 100% | residual activity [26] 100% | residual activity [27] 80% | residual activity [28] 100% | residual activity [29] 93% | residual activity [30] 85% | residual activity [31] 81% | residual activity [32] 87% | residual activity [33] 87% | residual activity [34] 100% | residual activity [35] 100% | residual activity [36] 100% | residual activity [37] 84% | inhibition [38] 7.38% | residual activity [39] 100% | residual activity [40] 100% | residual activity [41] 100% | residual activity [42] 97% | residual activity [43] 100% | residual activity [44] 100% | residual activity [45] 91%

O=C(Nc1cccnn1)N1CC(C/C=C/c2cncc(Oc3ccc(C(F)(F)F)cn3)n2)C1
inactive: residual activity [1] 88% | residual activity [2] 100% | residual activity [3] 58% | residual activity [4] 100% | residual activity [5] 95% | residual activity [6] 98% | residual activity [7] 67% | residual activity [8] 80% | residual activity [9] 98% | residual activity [10] 85% | residual activity [11] 100% | residual activity [12] 80% | residual activity [13] 80% | residual activity [14] 66% | residual activity [15] 86% | residual activity [16] 100% | residual activity [17] 75% | inhibition [18] 0.27% | residual activity [19] 88% | residual activity [20] 100% | residual activity [21] 64% | residual activity [22] 81% | residual activity [23] 100% | residual activity [24] 100% | residual activity [25] 100% | residual activity [26] 80% | residual activity [27] 100% | residual activity [28] 77% | residual activity [29] 100% | residual activity [30] 97% | residual activity [31] 100% | residual activity [32] 100% | residual activity [33] 100% | residual activity [34] 100% | residual activity [35] 100% | residual activity [36] 100% | residual activity [37] 100% | inhibition [38] -7.53% | residual activity [39] 100% | residual activity [40] 100% | residual activity [41] 72% | residual activity [42] 100% | residual activity [43] 100% | residual activity [44] 85% | residual activity [45] 93%
